By solubility is commonly meant the concentration that dissolves in the medium under given conditions. High values mean much dissolved substance, low ones little dissolved substance. The Kd is a measure of binding affinity in units of concentration. The low end stands for higher affinity, the high end for lower affinity. In general, IC50 refers to the concentration at which inhibition is half-maximal.

This is an account of results in publication PMC6190829 (Journal of medicinal chemistry, 2018).

Data set [1] can be described thus: Kinetic aqueous solubility in buffer pH 7.4. Format: physicochemical.
For data set [2], the system named is HaCaT cells. Kind of data set: Immunoblot of NRF2, NQO1, GCLM protein levels. As to conditions: 10 μM. Format: cell-based, human. (In general: A western blot detects proteins with antibodies after separation by electrophoresis.)
Data set [3] can be described thus: Microsomal stability, mouse liver microsomes. As to conditions: 1 μM, 20 min, NADPH. The data set is classed as in vitro ADME. A general note: Liver microsomes are vesicles of endoplasmic reticulum, rich in cytochrome P450 enzymes.
A short description of a further data set: Solubility in DMSO. The data set is classed as physicochemical.
In data set [4] the test system is Salmonella typhimurium (TA98, TA100, TA1535, TA1537). Kind of data set: Mini-Ames assay, revertant colonies per strain. As to conditions: for Dose response of revertant increase: 6a: TA98 and TA100. Background: In the Ames test, an excess of revertant colonies over the control signals mutagenicity.
The subject of data set [5] is Salmonella typhimurium (TA98, TA100, TA1535, TA1537) and Escherichia coli (WP2 uvrA (pKM101)). Nature of the data set: Mini-Ames assay, cytotoxicity and overall judgement over all strains. As to conditions: for Cytotoxicity in Mini-Ames assay: 1.5-1000 μg/well, any dose level; for Mutagenicity judgement: Mini-Ames, with and without S9.
For data set [6], the target named is T1, Kelch domain of KEAP1 (Homo sapiens, UniProt Q14145). Nature of the data set: Surface plasmon resonance assay.
T1 sequence (Q14145 321-609 limits assumed): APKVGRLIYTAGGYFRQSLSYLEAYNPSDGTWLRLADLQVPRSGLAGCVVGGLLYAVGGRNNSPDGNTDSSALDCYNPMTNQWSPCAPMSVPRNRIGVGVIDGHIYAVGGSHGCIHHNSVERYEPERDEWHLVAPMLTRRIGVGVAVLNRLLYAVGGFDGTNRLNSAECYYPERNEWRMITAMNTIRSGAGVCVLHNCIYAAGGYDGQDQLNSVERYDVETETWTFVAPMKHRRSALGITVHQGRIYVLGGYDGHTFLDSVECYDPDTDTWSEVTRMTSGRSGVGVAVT
In data set [7] the target is T1, Kelch domain of KEAP1. Kind of data set: Fluorescence anisotropy. As to conditions: IC50 (nM) (95% CI), fluorescent NRF2 peptide / KEAP1 Kelch domain.
In data set [8] the test system is HaCaT cells. Kind of data set: NRF2 target gene mRNA expression. Format: cell-based, human. As to conditions: 10 μM.
Data set [9] deals with HaCaT cells. Nature of the data set: Nuclear accumulation of NRF2. As to conditions: 10 μM, 6 and 24 hours, vs DMSO control. The data set is classed as cell-based, human.
For data set [10] the following is noted: cited from earlier work.
The mark [11] stands for this setting: with S9 mix, higher dose levels, vs vehicle control.

Several values for one entry are separate records, joined by “and”; a condition that tells them apart may be missing. Identical values can stand only once. Entries after “also recorded” stand apart in the source; their conditions may differ. Bounds are passed on as bounds.

As to `COc1ccc(S(=O)(=O)Nc2ccc(NS(=O)(=O)c3ccc(OC)cc3)c3ccccc23)cc1` [Compound 5], the “Aqueous solubility” value in data set [1] is “modest aqueous solubilities”.

For `CC1(C)CC[C@]2(C(=O)n3ccnc3)CC[C@]3(C)[C@H](C(=O)C=C4[C@@]5(C)C=C(C#N)C(=O)C(C)(C)[C@@H]5CC[C@]43C)[C@@H]2C1` [CDDO-Im, reference compound], in the data set with HaCaT cells [2] (24 h, vs vehicle), the GCLM protein level result is listed as “significantly higher”, the NQO1 protein level entry is given as “higher” and the NRF2 protein level entry was “higher”.

`COc1ccc(S(=O)(=O)N(CC(=O)O)c2ccc(N(CC(=O)O)S(=O)(=O)c3ccc(OC)cc3)c3[nH]ccc23)cc1` [Compound 29, 2,2’-((1H-indole-4,7-diyl)bis(((4-methoxyphenyl)sulfonyl)azanediyl))diacetic acid]: the “Stability of the compound” value in the data set “Compound stability” is listed as “unstable”.

For `COc1ccc(S(=O)(=O)N(CC(=O)O)c2ccc(N(CC(=O)O)S(=O)(=O)c3ccc(OC)cc3)c3ccccc23)cc1` [Compound 6a], in data set [3], the “Compound remaining after incubation, mouse liver microsomes” value was “stable”. The solubility in the data set “Solubility in DMSO” is ≤ 50 mg/mL. The “Dose response of revertant increase” value in data set [4] was “Dose response was also observed”. Further, in data set [4] (setting [11]), the “Increase in revertants, TA100” value was > 2 fold and the “Increase in revertants, TA1535” value is listed as > 3 fold. In [5], the “Cytotoxicity in Mini-Ames assay” value was “No cytotoxicity” and the Mutagenicity judgement entry is “positive for mutagenicity”.

`COc1ccc(S(=O)(=O)Nc2nnc(N(CC(=O)O)S(=O)(=O)c3ccc(OC)cc3)c3ccccc23)cc1` [Compound 34, N-(4-((4-methoxyphenyl)sulfonamido)phthalazin-1-yl)-N-((4-methoxyphenyl)sulfonyl)glycine]: in the data set with HaCaT cells [2] (6 h, vs DMSO), the NQO1 protein level result is listed as “no increase” and the NRF2 protein level entry is on record as “no increase”. The “Compound remaining after incubation, mouse liver microsomes” value in [3] was “comparable to the other compounds”. At Kelch domain of KEAP1 [6], the Kd is > 10000 nM. In addition, the half-maximal inhibitory concentration (IC50) at Kelch domain of KEAP1 [7] was 1000 nM and 1100 nM.

For the compound `COc1ccc(S(=O)(=O)N(CC(=O)O)c2cc(-c3ccccc3)cc(N(CC(=O)O)S(=O)(=O)c3ccc(OC)cc3)c2)cc1` [Compound 46, 2,2’-(1,1’-biphenyl]-3,5-diylbis(((4-methoxyphenyl)sulfonyl)azanediyl) diacetic acid], the half-maximal inhibitory concentration (IC50) at Kelch domain of KEAP1 [7] is > 25000 nM.

Turning to `COc1ccc(S(=O)(=O)N(CC(N)=O)c2ccc(N(CC(N)=O)S(=O)(=O)c3ccc(OC)cc3)c3ccccc23)cc1` [Compound 6b], in the data set on HaCaT cells [2] (6 h, vs DMSO), the NQO1 protein level result is recorded as “modest increase” and the NRF2 protein level entry was “modest increase”. Besides, in the data set on HaCaT cells [2] (24 h, vs vehicle), the GCLM protein level entry was “significantly higher”, the NQO1 protein level result is “Increased” and the NRF2 protein level entry was “Increased”. Further, the “Aqueous solubility” value in data set [1] is “poor solubility”.

For `COc1ccc(S(=O)(=O)N(CC(=O)O)c2cnc(N(CC(=O)O)S(=O)(=O)c3ccc(OC)cc3)c3ccccc23)cc1` [Compound 17, 2,2’-(isoquinoline-1,4-diylbis(((4-methoxyphenyl)sulfonyl)azanediyl))diacetic acid], in the data set with HaCaT cells [2] (24 h, vs vehicle), the GCLM protein level entry was “significantly higher”, the NQO1 protein level result is listed as “Increased” and the NRF2 protein level result is listed as “Increased”. In addition, in [4], the “Dose response of revertant increase” value was “No dose response was observed”. Besides, the “SOD mRNA expression (not an NRF2 target gene)” value in the data set with HaCaT cells [8] is on record as “neither isoquinoline 17 nor quinoline 23 produced a significant increase”. Also, in the data set with HaCaT cells [8] (6 hours), the “GCLC mRNA expression” value was “significant increase”, the “GCLM mRNA expression” value is on record as “significant increase” and the “HMOX1 mRNA expression” value is “significant increase”. Besides, the “NQO1 mRNA expression” value in the data set with HaCaT cells [8] (24 hours) is “increase”. Also, in data set [5], the “Cytotoxicity in Mini-Ames assay” value is given as “No cytotoxicity” and the Mutagenicity judgement result is “better mutagenic profile than naphthalene 6a”.

In the case of `COc1ccc(S(=O)(=O)N(CC(=O)O)c2ccc(N(CC(=O)O)S(=O)(=O)c3ccc(OC)cc3)c3ncccc23)cc1` [Compound 23], in the data set on HaCaT cells [2] (6 h, vs DMSO), the NQO1 protein level result is recorded as “modest increase” and the NRF2 protein level result is “modest increase”. Also, in the data set on HaCaT cells [2] (24 h, vs vehicle), the GCLM protein level result is recorded as “modestly increased”, the NQO1 protein level result is “no effect” and the NRF2 protein level entry is listed as “no effect”. The “NRF2 accumulation in the nucleus” value in the data set with HaCaT cells [9] was “small significant increase; also recorded: modest increase”. Also, the “SOD mRNA expression (not an NRF2 target gene)” value with HaCaT cells [8] was “neither isoquinoline 17 nor quinoline 23 produced a significant increase”. Further, in the data set with HaCaT cells [8] (6 and 24 hours), the “GCLC mRNA expression” value is listed as “small increase”, the “GCLM mRNA expression” value is on record as “small increase”, the “HMOX1 mRNA expression” value is given as “no increase” and the “NQO1 mRNA expression” value is on record as “small increase”.

Take `Cc1cc(C)c(C)c(S(=O)(=O)Nc2ccc(N3CC[C@H](C(=O)O)C3)c3ccccc23)c1C` [RA-839]: the In vivo activity result in data set [10] (ref Winkel et al.[31]) was “active in vivo only if Phase 1 metabolism were inhibited”. The In vivo metabolism entry in [10] (ref [31]) was “metabolized quickly in vivo”.
